In one experiment the target is D2 receptor (Homo sapiens, UniProt P14416). The following applies: Merck Manual 17th Edition; cited from earlier work.
Experiment [1] has as its system α2 adrenergic receptor versus dopamine D2 receptor. The following applies: literature; cited from earlier work.
The conditions of experiment [2]: idazoxan 120 mg/day added to 1000 mg chlorpromazine equivalents of fluphenazine; Litman et al. 1996; cited from earlier work.
In the next experiment the test system is Wistar rats. In words: Conditioned avoidance response (CAR) behavior in rats. It counts as in vivo. The following applies: rat CAR; adjunct treatment with idazoxan. An excerpt: Food and water were available ad libitum.
Rats were trained and tested in a conventional, manually operated two-way active avoidance (shuttlebox) apparatus connected to a high resistance power supply. The box was divided into two compartments of equal size by a partition with one opening. Upon presentation of the 80 dB white noise conditioned stimulus (CS), the animals had 10 seconds to move from one compartment of the shuttlebox into the other. If the rat remained in the same compartment for more than 10 seconds, an intermittent electric shock (approx. 0.2 mA of 0.5-sec duration; intershock interval 2.5 sec), the unconditioned stimulus (UCS), was presented in the grid floor until an escape was performed. […] Intertrial intervals varied at random between 20 and 40 seconds. The following variables were recorded: avoidance (response to CS within 10 sec); escape (response to CS+UCS); escape failures (failure to respond); and intertrial crosses. The animals were trained for 3 consecutive days. Training sessions were run over 15 minutes. A final test session (7.5 minutes) was performed on the day immediately prior to the first experimental day, and only animals performing at the 100% correct level were assigned to the experiment. Experimental manipulations were always preceded by a pretest. […]

The test system of a further experiment is α2 autoreceptors. The following applies: presynaptic; Martire et al. 1988; cited from earlier work.
The test system of the next experiment is α2 adrenoreceptors. The following applies: Martire et al. 1988; cited from earlier work.

Sequence of D2 receptor (P14416 whole entry): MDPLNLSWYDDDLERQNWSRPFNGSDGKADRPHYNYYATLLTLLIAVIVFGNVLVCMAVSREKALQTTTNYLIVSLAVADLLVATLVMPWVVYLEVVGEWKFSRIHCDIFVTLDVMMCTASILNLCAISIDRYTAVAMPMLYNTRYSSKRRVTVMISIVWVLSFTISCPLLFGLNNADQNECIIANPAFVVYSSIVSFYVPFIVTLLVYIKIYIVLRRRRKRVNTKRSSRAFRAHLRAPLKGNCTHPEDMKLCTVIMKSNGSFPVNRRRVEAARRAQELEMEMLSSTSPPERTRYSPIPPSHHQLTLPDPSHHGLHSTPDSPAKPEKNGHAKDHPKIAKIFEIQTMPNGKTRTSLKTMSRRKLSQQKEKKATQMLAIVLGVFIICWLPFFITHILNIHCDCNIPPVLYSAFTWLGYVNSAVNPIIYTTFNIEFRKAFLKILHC

For the compound `O=C1NCCN1CCN1CCC(c2cn(-c3ccc(F)cc3)c3ccc(Cl)cc23)CC1` [sertindole], on D2 receptor, the “dose corresponding to 1000 mg chlorpromazine equivalents” value (“dose corresponding” below) is 24 mg.

Consider `O=C1Cc2cc(CCN3CCN(c4nsc5ccccc45)CC3)c(Cl)cc2N1` [ziprasidone], for which the “fold less affinity for the α2 adrenergic receptor than for the dopamine D2 receptor” value in experiment [1] is recorded as 100 fold. `c1ccc2c(c1)OCC(C1=NCCN1)O2` (racemic) [idazoxan, ±-2-(1,4-benzodioxan-2-yl)-d-imidazoline]: in experiment [2], the clinical response result was “adequate clinical responses”. Turning to `OCCOCCN1CCN(C2=Nc3ccccc3Sc3ccccc32)CC1` [quetiapine], at D2 receptor, the “dose corresponding” value is recorded as 900 mg. For the compound `Cc1cc2c(s1)Nc1ccccc1N=C2N1CCN(C)CC1` [olanzapine], the “reduction of the olanzapine dose required for an effective antipsychotic effect through adjunct idazoxan” value in the experiment on Wistar rats is listed as roughly 50%. `OCCN1CCN(CCCN2c3ccccc3Sc3ccc(C(F)(F)F)cc32)CC1` [fluophenazine, fluphenazine]: on D2 receptor, the “dose corresponding” value is 20 mg. For the compound `c1ccc2c(c1)OCC(C1=NCCN1)O2` (single isomer, unassigned; (+)) [(+)-idazoxan], the “affinity towards the α2 autoreceptors relative to (−) idazoxan” value in the experiment on α2 autoreceptors is 40 times. The “potency in inhibiting p-[3H]aminoclonidine binding relative to (−) idazoxan” value with α2 adrenoreceptors is reported as 7-8 times.
